Experimental data published in ChEMBL document CHEMBL4152338, “Design, synthesis and screening of 1, 2, 4-triazinone derivatives as potential antitumor agents with apoptosis inducing activity on MCF-7 breast cancer cell line” (Eur J Med Chem, 2018).
Calls of active or inactive are those of the source. The rule behind the calls is not given here.

How the values were obtained:
[1] = system: MCF7; assay: Antiproliferative activity against human MCF7 cells after 48 hrs by MTT assay; assay type: functional, cell-based; settings: MCF7, 48 h
[2] = Antiproliferative activity against human Hs 371.T cells after 48 hrs by MTT assay; assay type: cell-based
[3] = system: MCF7; assay: Induction of apoptosis in human MCF7 cells assessed as early apoptotic cells at IC50 after 24 hrs by annexin V/FITC-propidium iodide staining-based flow cytometric method (reference value: 0.72%); assay type: functional
[4] = system: MCF7; assay: Induction of apoptosis in human MCF7 cells assessed as late apoptotic cells at IC50 after 24 hrs by annexin V/FITC-propidium iodide staining-based flow cytometric method (reference value: 0.34%); assay type: functional
[5] = system: MCF7; assay: Induction of apoptosis in human MCF7 cells assessed as necrotic cells at IC50 after 24 hrs by annexin V/FITC-propidium iodide staining-based flow cytometric method (reference value: 0.53%); assay type: functional
[6] = system: MCF7; assay: Induction of apoptosis in human MCF7 cells assessed as viable cells at IC50 after 24 hrs by annexin V/FITC-propidium iodide staining-based flow cytometric method (reference value: 96.57%); assay type: functional
[7] = system: MCF7; assay: Inhibition of tubulin beta polymerization in human MCF7 cells at IC50 after 18 to 24 hrs by spectrophotometric method relative to control; assay type: cell-based
[8] = target: T1, DNA topoisomerase 2-beta (Homo sapiens, UniProt Q02880); assay: Inhibition of human DNA topoisomerase 2beta after 2 hrs by ELISA
[9] = system: MCF7; assay: Upregulation of p53 level in human MCF7 cells at IC50 incubated for 24 hrs by ELISA relative to control; assay type: functional
[10] = system: MCF7; assay: Upregulation of Bax level in human MCF7 cells at IC50 incubated for 24 hrs by ELISA relative to control; assay type: functional
[11] = system: MCF7; assay: Down regulation of Bcl-2 level in human MCF7 cells at IC50 incubated for 24 hrs by ELISA; assay type: functional, cell-based
[12] = system: MCF7; assay: Upregulation of caspase3/7 level in human MCF7 cells at IC50 incubated for 24 hrs by green flow cytometric analysis relative to control; assay type: functional
[13] = system: MCF7; assay: Upregulation of caspase3/7 level in human MCF7 cells at IC50 assessed as caspase 3/7 green fluorescence incubated for 24 hrs by green flow cytometric analysis (reference value: 0.49%); assay type: functional
[14] = system: MCF7; assay: Potency index, ratio of podophyllotoxin IC50 to compound IC50 for human MCF7 cells; assay type: functional
[15] = system: MCF7; assay: Cell cycle arrest in human MCF7 cells assessed as increase in accumulation at G0 phase at IC50 after 24 hrs by propidium iodide staining-based flow cytometric analysis; assay type: functional
[16] = system: MCF7; assay: Cell cycle arrest in human MCF7 cells assessed as decrease in accumulation at G1 phase at IC50 after 24 hrs by propidium iodide staining-based flow cytometric analysis; assay type: functional
[17] = system: MCF7; assay: Cell cycle arrest in human MCF7 cells assessed as accumulation at G2 phase at IC50 after 24 hrs by propidium iodide staining-based flow cytometric analysis; assay type: functional
[18] = system: MCF7; assay: Potency index, ratio of ratio of compound effect to podophyllotoxin efect for cell cycle arrest in human MCF7 cells assessed as increase in cell percentage at G0 phase at IC50 after 24 hrs by propidium iodide staining-based flow cytometric analysis; assay type: functional
[19] = system: MCF7; assay: Potency index, ratio of ratio of compound effect to podophyllotoxin efect for induction of apoptosis in human MCF7 cells; assay type: functional
[20] = target: T1, DNA topoisomerase 2-beta; assay: Potency index, ratio of etopside IC50 to compound IC50 for topoisomerase 2beta in human MCF7 cells; assay type: cell-based
[21] = system: MCF7; assay: Upregulation of p53 level in human MCF7 cells at IC50 incubated for 24 hrs by ELISA relative to podophyllotoxin; assay type: functional
[22] = system: MCF7; assay: Increase in Bax/Bcl-2 ratio in human MCF7 cells at IC50 incubated for 24 hrs by ELISA; assay type: functional, cell-based

T1 sequence (Q02880 whole entry): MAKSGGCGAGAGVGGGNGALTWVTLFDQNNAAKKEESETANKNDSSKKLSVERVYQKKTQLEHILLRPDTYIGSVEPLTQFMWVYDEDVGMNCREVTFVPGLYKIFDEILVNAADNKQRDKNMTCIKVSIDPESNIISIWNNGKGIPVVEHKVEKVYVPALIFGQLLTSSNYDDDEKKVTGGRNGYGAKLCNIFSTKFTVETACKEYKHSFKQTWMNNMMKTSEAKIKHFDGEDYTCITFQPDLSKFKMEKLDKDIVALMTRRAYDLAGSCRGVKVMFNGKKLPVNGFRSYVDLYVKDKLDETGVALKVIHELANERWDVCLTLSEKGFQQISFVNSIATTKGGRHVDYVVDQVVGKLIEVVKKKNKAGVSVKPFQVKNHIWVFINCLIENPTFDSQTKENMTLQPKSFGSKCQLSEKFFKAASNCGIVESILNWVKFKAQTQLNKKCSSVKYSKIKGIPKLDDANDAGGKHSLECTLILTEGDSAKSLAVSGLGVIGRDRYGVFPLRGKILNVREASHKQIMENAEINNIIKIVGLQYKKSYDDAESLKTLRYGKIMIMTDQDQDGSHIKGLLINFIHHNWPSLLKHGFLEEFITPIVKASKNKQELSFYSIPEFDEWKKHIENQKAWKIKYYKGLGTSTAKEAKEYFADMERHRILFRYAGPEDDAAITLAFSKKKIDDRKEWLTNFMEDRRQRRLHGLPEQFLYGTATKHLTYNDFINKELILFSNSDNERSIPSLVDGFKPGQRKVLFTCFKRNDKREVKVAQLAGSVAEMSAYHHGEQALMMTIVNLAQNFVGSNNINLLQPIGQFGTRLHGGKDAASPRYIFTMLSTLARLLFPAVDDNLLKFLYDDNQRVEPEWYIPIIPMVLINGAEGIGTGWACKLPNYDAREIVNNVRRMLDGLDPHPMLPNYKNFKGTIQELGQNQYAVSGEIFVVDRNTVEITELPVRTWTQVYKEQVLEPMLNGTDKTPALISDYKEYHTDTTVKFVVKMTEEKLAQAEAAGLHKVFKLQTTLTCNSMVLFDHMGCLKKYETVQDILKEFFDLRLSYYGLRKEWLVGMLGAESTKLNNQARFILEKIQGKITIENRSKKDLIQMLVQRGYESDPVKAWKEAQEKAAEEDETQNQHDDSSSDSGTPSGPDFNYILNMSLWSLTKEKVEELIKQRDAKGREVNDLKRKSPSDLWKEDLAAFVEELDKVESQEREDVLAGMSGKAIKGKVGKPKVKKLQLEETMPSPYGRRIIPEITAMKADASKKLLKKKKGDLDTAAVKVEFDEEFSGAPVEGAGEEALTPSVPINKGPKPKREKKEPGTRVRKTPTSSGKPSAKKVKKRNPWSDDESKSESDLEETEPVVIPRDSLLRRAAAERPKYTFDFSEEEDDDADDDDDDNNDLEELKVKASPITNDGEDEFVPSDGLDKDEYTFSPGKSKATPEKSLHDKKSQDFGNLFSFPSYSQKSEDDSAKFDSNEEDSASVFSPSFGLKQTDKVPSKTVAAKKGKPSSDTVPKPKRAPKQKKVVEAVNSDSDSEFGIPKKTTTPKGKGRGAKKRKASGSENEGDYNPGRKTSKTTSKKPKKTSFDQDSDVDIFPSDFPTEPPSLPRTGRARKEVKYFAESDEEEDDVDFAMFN

Row | SMILES | IC50 [1] | IC50 [2] | Activity [3] | Activity [4] | Activity [5] | inhibition [7] | Activity [13] | further results
1 | COc1ccc(C(=O)N/C(=C/c2cc(Br)cc(Br)c2OC(C)=O)C(=O)NNC(N)=S)cc1OC | 8.97 µM |  |  |  |  |  |  | 
2 | COc1cc(C2=N/C(=C\c3cc(Br)cc(Br)c3OC(C)=O)C(=O)n3c(C)nc(=S)n32)cc(OC)c1OC | 3.07 µM | 58.7 µM | 3.38% | 4.53% | 1.73% | 88.2% | 7.58% | Activity [6]: 88.4%; IC50 [8]: 0.11 µM; fold change (FC) [9]: 5.1; fold change (FC) [10]: 0.9; Activity [11]: Active; fold change (FC) [12]: 31.3
3 | COc1ccc(C2=N/C(=C\c3cc(Br)cc(Br)c3OC(C)=O)C(=O)n3c(C)nc(=S)n32)cc1OC | 6.84 µM |  |  |  |  |  |  | 
4 | COc1cc(C2=N/C(=C\c3cc(Br)cc(Br)c3OC(C)=O)C(=O)NN2c2ccccc2)cc(OC)c1OC | 0.35 µM | 44.3 µM | 5.47% | 7.85% | 3.14% | 33.4% | 11.28% | Ratio IC50 [14]: 6; Activity [15]: Active; Activity [16]: Active; Activity [17]: Active; Ratio [18]: 1.4; Activity [6]: 81.41%; Ratio [19]: 1.5; IC50 [8]: 0.0126 µM; Ratio IC50 [20]: 5.3; fold change (FC) [9]: 1.9; fold change (FC) [21]: 2.1; fold change (FC) [10]: 3.9; Activity [11]: Active; fold change (FC) [12]: 18; Activity [22]: Active
5 | COc1cc(C2=N/C(=C\c3cc(Br)cc(Br)c3OC(C)=O)C(=O)NN2c2ncc(-c3ccccc3)s2)cc(OC)c1OC | 0.41 µM | 77.4 µM | 3.64% | 6.33% | 3.31% | 55.2% | 7.79% | Ratio IC50 [14]: 6; Activity [15]: Active; Activity [16]: Active; Activity [17]: Active; Activity [6]: 84.46%; IC50 [8]: 0.00685 µM; Ratio IC50 [20]: 10.2; fold change (FC) [9]: 9.2; fold change (FC) [21]: 1.75; fold change (FC) [10]: 3.4; Activity [11]: Active; fold change (FC) [12]: 15.6; Activity [22]: Active
6 | COc1cc(C(=O)N/C(=C/c2cc(Br)cc(Br)c2OC(C)=O)C(=O)NNC(N)=S)cc(OC)c1OC | 2.85 µM |  | 4.66% | 5.62% | 2.11% | 62.3% | 6.91% | IC50 [8]: 0.0814 µM; fold change (FC) [9]: 4.2; fold change (FC) [10]: 2.2; Activity [11]: Active; fold change (FC) [12]: 24.1; Activity [22]: Active
7 | CC(=O)Oc1c(Br)cc(Br)cc1/C=C1\N=C(c2ccccc2)N(C(N)=S)NC1=O | 28.5 µM | 80.1 µM |  |  |  |  |  | 
8 | COc1cc(C2=N/C(=C\c3cc(Br)cc(Br)c3OC(C)=O)C(=O)NN2C(N)=S)cc(OC)c1OC | 0.36 µM | 61.3 µM | 4.78% | 10.88% | 3.66% | 44.4% | 8.69% | Ratio IC50 [14]: 6; Activity [15]: Active; Activity [16]: Active; Activity [17]: Active; Activity [6]: 78.79%; Ratio [19]: 1.25; IC50 [8]: 0.0317 µM; Ratio IC50 [20]: 2.2; fold change (FC) [9]: 8.1; fold change (FC) [21]: 1.7; fold change (FC) [10]: 3.2; Activity [11]: Active; fold change (FC) [12]: 21.6; Activity [22]: Active
9 | CC(=O)Oc1c(Br)cc(Br)cc1/C=C1\N=C(c2ccccc2)n2c(=S)nc(C)n2C1=O | > 100 µM |  |  |  |  |  |  | 
10 | COc1ccc(C2=N/C(=C\c3cc(Br)cc(Br)c3OC(C)=O)C(=O)NN2c2ncc(-c3ccc(Br)cc3)s2)cc1OC | 3.28 µM |  |  |  |  |  |  | 
11 | COc1cc(C2=N/C(=C\c3cc(Br)cc(Br)c3OC(C)=O)C(=O)NN2c2ncc(-c3ccc(Br)cc3)s2)cc(OC)c1OC | 3.16 µM |  |  |  |  |  |  | 
12 | COc1cc([C@@H]2c3cc4c(cc3[C@H](O)[C@H]3COC(=O)[C@H]23)OCO4)cc(OC)c1OC [PODOFILOX] | 2.21 µM | 22.4 µM | 4.19% | 7.02% | 2.06% | 96.3% | 7.58% | Activity [6]: 84.61%
13 | COc1ccc(C2=N/C(=C\c3cc(Br)cc(Br)c3OC(C)=O)C(=O)NN2c2ncc(-c3ccccc3)s2)cc1OC | 4.33 µM |  |  |  |  |  |  | 
14 | CC(=O)Oc1c(Br)cc(Br)cc1/C=C1\N=C(c2ccccc2)N(c2ncc(-c3ccc(Br)cc3)s2)NC1=O | 9.49 µM |  |  |  |  |  |  | 
15 | COc1ccc(C2=N/C(=C\c3cc(Br)cc(Br)c3OC(C)=O)C(=O)NN2C(N)=S)cc1OC | 13.4 µM |  |  |  |  |  |  | 
16 | CC(=O)Oc1c(Br)cc(Br)cc1/C=C1\N=C(c2ccccc2)N(c2ncc(-c3ccccc3)s2)NC1=O | 38.3 µM |  |  |  |  |  |  | 
17 | COc1ccc(C2=N/C(=C\c3cc(Br)cc(Br)c3OC(C)=O)C(=O)NN2c2ccccc2)cc1OC | 5.39 µM |  |  |  |  |  |  | 
18 | CC(=O)Oc1c(Br)cc(Br)cc1/C=C(/NC(=O)c1ccccc1)C(=O)NNC(N)=S | 16.8 µM |  |  |  |  |  |  | 
19 | CC(=O)Oc1c(Br)cc(Br)cc1/C=C1\N=C(c2ccccc2)N(c2ccccc2)NC1=O | 19.4 µM |  |  |  |  |  |  | 
